For orientation: IC50 means the midpoint of a concentration-inhibition curve.

Data set [1] concerns the target T1, CARM1 (Homo sapiens, UniProt Q86X55).
T1 construct: FLAG-CARM1 (amino acids 2–585)-His for biochemical studies was expressed in 293 F mammalian cells; made in house; host or cells: 293F mammalian cells
T1 sequence (Q86X55 2-585 isoform Q86X55-1): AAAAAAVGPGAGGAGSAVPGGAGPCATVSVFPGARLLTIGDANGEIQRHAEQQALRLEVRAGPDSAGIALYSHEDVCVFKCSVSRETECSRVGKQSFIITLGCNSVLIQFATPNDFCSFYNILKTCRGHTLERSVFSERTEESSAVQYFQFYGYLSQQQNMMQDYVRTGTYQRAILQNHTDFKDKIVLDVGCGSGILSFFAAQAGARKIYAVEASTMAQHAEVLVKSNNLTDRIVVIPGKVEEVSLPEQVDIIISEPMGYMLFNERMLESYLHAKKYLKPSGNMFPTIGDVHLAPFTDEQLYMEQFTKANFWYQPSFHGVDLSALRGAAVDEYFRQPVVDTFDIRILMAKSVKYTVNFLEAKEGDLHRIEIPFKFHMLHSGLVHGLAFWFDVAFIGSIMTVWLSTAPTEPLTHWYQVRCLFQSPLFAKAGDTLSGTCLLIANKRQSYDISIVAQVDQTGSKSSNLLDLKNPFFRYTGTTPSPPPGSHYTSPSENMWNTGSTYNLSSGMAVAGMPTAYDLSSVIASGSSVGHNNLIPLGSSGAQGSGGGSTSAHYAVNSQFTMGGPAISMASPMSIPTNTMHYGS
Description: CARM1 histone methyltransferase (biochemical) assay. The conditions noted are these: for IC50: 30 min preincubation, IC50 measured at 120 minutes. How it is done:
CARM1 activity was measured as previously reported for the histone methyltransferases PRMT1/6/8[65] and PRMT5[58]. Briefly, CARM1 was preincubated with compounds for 30 minutes at room temperature before reactions were initiated. […] The assays were quenched by the addition of 300 μM unlabeled SAM. The quantity of ^3H-labeled peptide produced was measured by Flashplate on a Topcount reader. Further details can be found in the Supplementary Methods.
Histone methyltransferase assay
The compounds were preincubated with CARM1 for 30 minutes at room temperature before the reactions were initiated by the addition of substrates. […]
containing 20 mM bicine, 1 mM tris(2-carbox yethyl)phosphine, 0.005% bovine skin gelatin and 0.002% Tween-20, pH 7.5 and 2% DMSO. The peptide sequence was biotin-aminohexanoate- […]
eKS AP-amide, where RMe is a monomethylated arginine residue (21st
Century Biochemicals, Marlboro, MA). After 2 hours, assa ys were quenched b y the addition of 300 μM unlabeled SAM. The reactions were tran sferred to a 384-well Flashplate (Perkin Elmer) and the biotinylated peptides were allowed to bind to the streptavidin surface for at least 1 hour before being washed once with 0.1% Tween 20. The quantit y of 3H-labeled peptide bound to the Flashplate surface was counted on a Topcount reader as counts per minute (cpm). % Inhibition values wer e calculated and IC50 values were fit using the 3 -param eter IC50 equation below:
YY = BBBBBBBBBBBB + (100 − BBBBBBBBBBBB )HHHHHHHH CCCCCCCCCCHHCCHHCCCCCC where top is fixed at 100 or the maximum inhibition plateau , Y is % inhibition and X is […]
IC50 vs [peptide] data were fit to the noncom petitive Cheng- Prusoff […]
The effect of reaction time on compound potency was determined b y meas uring IC50 values from […]
to a one phase exponential deca y equation. […]
activity was measured under standard conditions after a 30 minute preincubation.
IC 50 values were d etermi ned and data wer e anal yz ed using the following eq uation: […]

Data set [2] deals with asymmetric di-methyl PABP1 in RKO cells. Description: In cell western (ICW) assay for asymmetric di-methyl PABP1. The settings on record: Homo sapiens, 48 h, read-out: CARM1 ICW IC50.
Description: In cell w estern assay f or detection of asymmetric di -methyl PABP1 an d DNA content RKO cells (ATCC) were maintained in growth medium (DMEM/Glutamax medium supplemented with 10% v/v heat inactivated fetal bovine serum and 100 units/mL penicillin-streptom ycin) and cultured at 37 °C under 5% CO2. Cells were seeded in assay medium at a concentration of 30,000 cells per m L to a pol y -D-l ys ine coated 384 well culture plate with 50 µ L per well. Compound (100 nL) from a 96-well sou rce plate was add ed directl y to 384 well cell plate. Plates were incubated at 37°C, 5% CO2 for 48 hours. After two da ys of incubation, plates were brought to room temperature outside of the incubator for ten minutes and blotted on paper towels to remove cell media. Cells were fixed for 20 minutes atroom temperature b y adding 50 µl of 8% PFA followed by aspiration of supernatant. Cells were then permeabilized by addition of 50 µ L of i ce cold 100% methanol directl y to each well and incubated for 30 min at room temperature. After 30 min, plates were washed 2 times with 100 µL per well of wash buffer (1X PBS). Next 60 µL per well of Odysse y blocking buffer (Od ysse y Buffer wi th 0.1% Tween 20 (v/v)) were added to each plate and incubat ed 1 hour at room temperature. Blocking buffer was removed and 20 µ L per well of primar y antibod y was added (as ymmetric-methyl PABP1) diluted 1:400 in Odysse y buffer with 0.1% Tween 20 (v/v)) and plates were incubated overni ght (16 hours) at 4°C. Plates were washed 5 times wit h 100 µ L per well of wash buffer. Next 20 µL per well of secondar y ant ibody was added (1:800 800CW goat anti-rabbit IgG (H+L) antibod y, 1:2000 DRAQ5 in Odyss ey buffer with 0.1% Tween 20 (v/v)) and incubated for 1 hour at room temperature. The plates were washed 5 times wit h 100 µ L per well wash buffer then 2 times with 100 µ L per well of w ater . Plates were allowed to dr y at room temper ature t hen imag ed on the Lico r Od ysse y machine. The ratio of as ymmetri c di-methyl PABP1 to DR AQ5 was det ermined for each well and then used to determine percent i nhibition relative to DMSO control. IC 50 curves were generated us ing triplicate wells per concentration of compound.
For data set [3], the system named is 20 other diverse HMTs in the Epizyme enzyme panel. Description: Methyltransferase cross screening panel.
Data set [4] relates to PABP1, SmB, aDMA and histone H3 methylation in RPMI-8226 cells. Description: Western blot of cellular methyl marks, RPMI-8226. It counts as cell-based, human. The settings on record: for IC50: Homo sapiens. A general note: A western blot detects proteins with antibodies after separation by electrophoresis.
Data set [5] is described as follows: Pharmacokinetic profiles in mice and rats. The data set is classed as in vivo.
[6] abbreviates: read-out: CARM1 Biochemical IC50.

Structures are written as SMILES. Like-named read-outs stand apart in the source and are kept apart here.

For the compound `CC(C)n1ncc2c(N3CCOCC3)cc(-c3cccc(OCC(O)CN)c3)nc21` (stereo not drawn) [Compound 2], in data set [1], the “fold more potent against CARM1 than compound 1” value is on record as 50 fold. In addition, the results for the IC50 in data set [1] (setting [6]) and in data set [2] were 46 ± 9 nM and 19000 nM, respectively. In addition, the “selectivity for CARM1 over 20 other diverse HMTs” value in data set [3] is on record as “more than 100 fold”.

`CNC[C@@H](O)COc1cc(-c2nc(-c3c(C)noc3C)c(C)c(N3CC4(CCN(C(=O)OC)CC4)C3)n2)ccc1Cl` [EPZ029751, methyl 2-(2-(4-chloro-3-((R)-2-hydroxy-3-(methylamino)propoxy)phenyl)-6-(3,5-dimethylisoxazol-4-yl)-5-methylpyrimidin-4-yl)-2,7-diazaspiro[3.5]nonane-7-carboxylate]: in data set [1], the “biochemical potency against CARM1 compared with EZM2302” value is given as “much weaker biochemical potency”. Also, the IC50 in data set [1] (setting [6]) is > 1000 nM; in data set [2], > 6500 nM; in data set [4] (96 h, RPMI-8226, four days, 0.0003 to 5 µM, read-out: IC50, SmBme0), > 5000 nM; in data set [4] (RPMI-8226, 96 h treatment, read-out: IC50, methylation of PABP1 (PABP1me2a)) it was > 5000 nM. Besides, the changes in methylation result in data set [4] (RPMI-8226, four days) was “No robust changes in methylation”.

`Cn1cnc2ccc(-c3cccc(OCC(O)CN)c3)nc21` (stereo not drawn) [Compound 1]: the IC50 in data set [1] (read-out: CARM1 IC50) was 2300 ± 800 nM; in data set [2] it was > 20000 nM.

Consider `CNC[C@@H](O)COc1ccc(Cl)c(-c2nc(-c3c(C)noc3C)c(C)c(N3Cc4cnc(N5CCC5)nc4C3)n2)c1` [EPZ025654], for which the IC50 in data set [1] (setting [6]) came to 3 nM; in data set [2], 11 nM. In data set [5], the pharmacokinetic profiles entry is recorded as “without satisfactory pharmacokinetic profiles”.

Values taken from paper PMC5740082, “Identification of a CARM1 Inhibitor with Potent In Vitro and In Vivo Activity in Preclinical Models of Multiple Myeloma” (Scientific Reports, 2017).
